Where two headings read alike, the source gives them in different places.
Experiments:
[1] = system: Primary human bronchial epithelial cells from a ΔF508 homozygous CF donor (CF-HBE cells); experiment: TECC24 recording of CFTR-mediated transepithelial chloride transport, AUC fold over benchmark VX-809 @10 μM; format: cell-based; settings: 48 hours incubation, AUC of forskolin-stimulated IEQ
Summary of the method: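 Values are the forskolin-to-inhibitor-172 AUC of equivalent Cl− current, derived from transepithelial voltage and resistance, divided by the VX-809 AUC and binned as A <3, B 3–6, C 6–20. Cells were pre-incubated with compound for 48 h at 36.5 °C; the bath (pH 7.4) received benzamil 10 μM, forskolin 10 μM, then CFTRinh-172 20 μM.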

[2] = biological target: T1, Purified recombinant NBD1 (Homo sapiens, UniProt P13569); experiment: Aggregation analysis using differential static light scattering (DSLS): thermal stability of NBD1; format: binding; settings: NBD1 0.2 mg/ml; Tagg of compound well minus average Tagg of DMSO control wells
T1 construct: Purified recombinant NBD1 was produced using previously described methods; made in house
T1 sequence (P13569 423-646 limits assumed): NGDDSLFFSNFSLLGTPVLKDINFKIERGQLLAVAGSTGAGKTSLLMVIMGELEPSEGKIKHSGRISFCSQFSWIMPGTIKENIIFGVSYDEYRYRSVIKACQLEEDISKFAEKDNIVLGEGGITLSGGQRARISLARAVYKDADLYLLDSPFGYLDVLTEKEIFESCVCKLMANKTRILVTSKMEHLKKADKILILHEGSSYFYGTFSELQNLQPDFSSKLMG
Summary of the method: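 ΔTagg is compound-well aggregation temperature minus the DMSO-control mean, each Tagg being the inflection point of light scattering measured by DSLS during a 1 °C/min ramp up to 70 °C. The protein was purified NBD1 (0.2 mg/ml) in pH 7.6 buffer containing 2 mM ATP, 5 mM MgCl2 and 1% glycerol.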

Molecule	TECC (test agent AUC divided by VX-809 AUC) [1]	DSLS (ΔTagg) [2]	further results
CCOC(=O)CCc1cccc(C2(C)CCCOC(=O)N(C)C/C=C/c3c(c(F)cc4[nH]ccc34)Oc3ccc(F)c(c3)-c3ncc2[nH]3)c1 (centres unmarked)	–	–	ring closure, isolated yield (from CCC[CH2][Sn](/[CH]=C/CN(C)C(=O)OCCCC(C)(c1cccc(CCC(=O)OCC)c1)c1cnc(-c2cc(Oc3c(F)cc4[nH]ccc4c3Br)ccc2F)[nH]1)([CH2]CCC)[CH2]CCC, cc_pd bond, 19-membered ring): 66%
CN1C(=O)OCc2c(c(F)cc3c2ccn3S(=O)(=O)c2ccccc2)Oc2ccc(F)c(c2)-c2nc(nn2C)C(C)(c2cccc(Br)c2)C/C=C\CC1(C)C (centres unmarked)	–	–	ring closure, isolated yield (from (5-(3-(3-(2-(3-Bromophenyl)pent-4-en-2-yl)-1-methyl-1H-1,2,4-triazol-5-yl)-4-fluorophenoxy)-6-fluoro-1 -(phenylsulfonyl)-NH-indol-4-yl)methyl methyl(2-methylpent-4-en-2-yl)carbamate, rcm bond, 19-membered ring, Grubbs II (0.4 eq), toluene, 5.1 mM, 60.0 °C): 60%
CN1CC(C)(C)CCC[C@](C)(c2cccc(I)c2)c2nc(n(C)n2)-c2cc(ccn2)Oc2c(F)cc3[nH]ccc3c2/C=C/C1=O	–	–	ring closure, isolated yield (from CNCC(C)(C)CCC[C@](C)(c1cccc(I)c1)c1nc(-c2cc(Oc3c(F)cc4[nH]ccc4c3/C=C/C(=O)O)ccn2)n(C)n1, amide bond, 19-membered ring, 2 steps): 37%
Cc1ccc(S(=O)(=O)n2ccc3c4c(c(F)cc32)Oc2ccnc(c2)-c2nc(nn2C)[C@@](C)(c2cccc(I)c2)CCCCC(C)(C)CN(C)C(=O)C4)cc1	–	–	ring closure, isolated yield (amide bond, 19-membered ring, with chain assembly): 35%
Cn1nc2nc1-c1cc(ccc1F)Oc1c(F)cc3[nH]ccc3c1CCC(=O)NS(=O)(=O)CC=CCC2(C)c1cccc(Br)c1 (centres unmarked)	–	–	ring closure, isolated yield (from C=CCC(C)(c1cccc(Br)c1)c1nc(-c2cc(Oc3c(F)cc4[nH]ccc4c3CCC(=O)NS(=O)(=O)CC=C)ccc2F)n(C)n1, rcm bond, 19-membered ring, Grubbs II (0.2 eq), toluene, 2.4 mM, 65.0 °C, 0.75 h): 60%
C[C@@H](Cc1cccc([C@@]2(C)CCCCC(C)(C)CN(C)C(=O)Cc3c(c(F)cc4[nH]ccc34)Oc3ccnc(c3)-c3nc2nn3C)c1)C(=O)O [Compound 121, (2S)-3-[3-[(6R)-23-fluoro-3,6,11,11,13-pentamethyl-14-oxo-25-oxa-3,4,13,20,29,31-hexazapentacyclo[24.3.1.12,5.016,24.017,21]hentriaconta-1(30),2(31),4,16,18,21,23,26,28-nonaen-6-yl]phenyl]-2-methyl-propanoic acid]	A (a TECC value less than 3 is marked “A”)	C (a value greater than 10 °C and less than or equal to 25 °C is marked “C”)	–
C[C@H](Cc1cccc([C@@]2(C)CCCCC(C)(C)CN(C)C(=O)Cc3c(c(F)cc4[nH]ccc34)Oc3ccnc(c3)-c3nc2nn3C)c1)C(=O)O [Compound 122, (2R)-3-[3-[(6R)-23-fluoro-3,6,11,11,13-pentamethyl-14-oxo-25-oxa-3,4,13,20,29,31-hexazapentacyclo[24.3.1.12,5.016,24.017,21]hentriaconta-1(30),2(31),4,16,18,21,23,26,28-nonaen-6-yl]phenyl]-2-methyl-propanoic acid]	A (a TECC value less than 3 is marked “A”)	B (a value above 5 °C and less than or equal to 10 °C is marked “B”)	–
CN1CC(C)(C)CCCC[C@](C)(c2cccc(CCC(=O)O)c2)c2nc(n(C)n2)-c2cc(ccn2)Oc2c(F)cc3[nH]ccc3c2CC1=O [Compound 123, 3-[3-[(6R)-23-Fluoro-3,6,11,11,13-pentamethyl-14-oxo-25-oxa-3,4,13,20,29,31-hexazapentacyclo[24.3.1.12,5.016,24.017,21]hentriaconta-1(30),2(31),4,16,18,21,23,26,28-nonaen-6-yl]phenyl]propanoic acid]	A (a TECC value less than 3 is marked “A”)	C (a value greater than 10 °C and less than or equal to 25 °C is marked “C”)	–
CN1CC(C)(C)CCCC[C@](C)(c2cccc(CC(C)(C)C(=O)O)c2)c2nc(n(C)n2)-c2cc(ccn2)Oc2c(F)cc3[nH]ccc3c2CC1=O [Compound 124, 3-[3-[(6R)-23-fluoro-3,6,11,11,13-pentamethyl-14-oxo-25-oxa-3,4,13,20,29,31-hexazapentacyclo[24.3.1.12,5.016,24.017,21]hentriaconta-1(30),2(31),4,16,18,21,23,26,28-nonaen-6-yl]phenyl]-2,2-dimethyl-propanoic acid]	A (a TECC value less than 3 is marked “A”)	A (an ΔTagg value less than or equal to 5 °C is marked “A”)	–
Methyl (2S)-3-[3-[(13E)-22,28-difluoro-3,6,10,10-tetramethyl-12,12-dioxo-]9-(p-tolylsulfonyl)-24-oxa-12A6-thia-3,4,11,19,30-pentazapentacyclo[23.3.1.12,5.015,23.016,20]triaconta-1(29),2(30),4,13,15,17,20,22,25,27-decaen-6-yl]phenyl]-2-methyl-propanoate	–	–	ring closure, isolated yield (cc_pd bond, 18-membered ring, Pd(PtBu3)2/TEA, toluene, 1.75 mM, 100.0 °C): 65%

From US20250197420A1, “MACROCYCLIC COMPOUNDS, COMPOSITIONS, AND METHODS OF USING THEREOF” (Sionna Therapeutics Inc., priority 2022, published 2025)
